Read-outs that look alike come from different tables or passages of the source.
Tests used:
CYP2D6 = assay: Pharmacokinetic test of marker drugs in high-replacement chimeric mouse under inhibition of CYP2D6 by paroxetine, donor BD51; settings: uPA(+/+)/SCID, po
Procedure: As for the chimeric mice, chimeric mice produced in PhoenixBio Co., Ltd. were used. To be more specific, 3 mice in which human hepatocytes were engrafted and proliferated in the mouse liver were produced by transplanting human hepatocytes (BD51, purchased from BD Gentist Inc.) into the spleen of uPA(+/+)/SCID mice, which are mice having hepatic impairment and immunodeficiency.
Paroxetine was dissolved in Milli-Q water (using a bath-type ultrasonic device) and prepared to give a final concentration of 6 mg/ml. The prepared drug was intraperitoneally administered to the mice at a dose of 5 μl/g b.w. (30 mg/kg b.w./day).
To the high-replacement chimeric mice, paroxetine was intraperitoneally administered for 3 days. Then, in the same manner as in Example 1, 5 compounds were simultaneously administered orally by gavage, the blood was collected over time, and the serum was stored.
The determination and analysis of drugs in the serum were carried out in the same manner as in Example 1.
The determined values of the drug concentration in the serum were calculated from the peak area ratio obtained by the LC-MS/MS measurement of the samples for addition calibration curve. […] From the graphs, Cmax, t1/2 and AUC were analyzed.

[1] = Pharmacokinetic test using chimeric mouse, 5 marker drugs simultaneously, oral or intravenous, donor IVT079
Description: (§1) As for the chimeric mice, chimeric mice produced by Hiroshima Prefectural Institute of Industrial Science and Technology or PhoenixBio Co., Ltd. were used. To be more specific, mice in which human hepatocytes were engrafted and proliferated in the mouse liver were produced by transplanting human hepatocytes (IVT079, purchased from In Vitro Technology Inc., or BD51, purchased from BD Gentest Inc.) into the spleen of uPA(+/+)/SCID mice, which are mice having hepatic impairment and immunodeficiency. Mice in which 70% or more of the mouse liver had been replaced with human hepatocytes (high-replacement chimeric mice) and low-replacement chimeric mice in which although human hepatocytes had been transplanted, the replacement ratio was almost 0%, or untransplanted mice (mice with no replacement) were used (3 mice in each group). Further, as a control, 3 uPA(−/−)/SCID mice were used.
(§2) The concentration for administration of tolbutamide which is a standard drug for CYP2C9 was […]., and 4.175 mg of tolbutamide was weighed out and suspended in 1 ml of a CMC liquid in an agate mortar, and a 4.175 mg/ml suspension which is 5 times as high as the concentration for administration was prepared.
(§3) To the high-replacement chimeric mice, low-replacement chimeric mice (or mice with no replacement) and uPA(−/−)/SCID mice (3 mice in each group), 5 compounds were simultaneously administered orally by gavage or intravenously. The blood was collected from the tail vein of each mouse in an amount of 15 μl each at 0.25 (only intravenous administration), 0.5, 1, 2, 4 (only oral administration) and 8 hours after administration. Then, the blood was centrifuged at 3,500 rpm for 5 minutes, and the serum (supernatant) was collected and stored in a freezer at −30° C.
(§4) The serum samples were transported to Sumika Chemical Analysis Service, Ltd. while keeping it in dry ice, and subjected to measurement by LC-MS/MS according to the following procedure.
(§5) With regard to a liquid chromatograph, SIL-HTC and LC-10A series (Shimadzu Corporation) were used, and as a column, Synergi 4μ Polar-RP 80A, 150 mm (length)×2.00 mm (inner diameter), 4 μm (Phenomenex Inc.) was used at 30° C. As a mobile phase, methanol/a 10 mmol/l ammonium acetate solution/acetic acid (700/300/2, v/v/v) was used, and a flow rate was set at 0.2 ml/min. An injection volume was set at 2 μl, a measurement time was set at 10 min, and the temperature of an autosampler was set at 4° C. As a mass spectrometer, Tandem Mass Spectrometer API 4000 (Applied Biosystems/MDS SCIEX Inc.) was used. As API interface, Turbo V (ESI probe) was used, and as Ionization mode, Positive ion detection mode was used.
To Eppendorf tubes in which 5 μl of samples to be measured (serum) were contained, 100 μl of methanol was added, and 10 μl of 1 μg/ml of I.S. standard solution was added thereto, and then, the mixtures were thoroughly mixed by an ultrasonic treatment and a vortex mixer. The resulting mixtures were centrifuged (15,000 rpm, 5 min, room temperature), and the resulting supernatants were subjected to centrifugal filtration (10,000 rpm, 2 min, room temperature) with a filter, and the resulting filtrates were used as injection samples for LC-MS/MS.
(§6) The determined values of the drug concentration in the serum were calculated from the peak area ratio obtained by the LC-MS/MS measurement of the samples for addition calibration curve. […] From the graphs, the peak serum concentration (Cmax), half-life (t1/2), area under the curve (AUC), bioavailability and clearance were analyzed, and pharmacokinetics in human was predicted.

[2] = mouse, in vivo
Description: as §1, §2, §3, §4, §5
To Eppendorf tubes in which 5 μl of samples to be measured (serum) were contained, 100 μl of methanol was added, and 10 μl of 1 μg/ml of I.S. standard solution was added thereto, and then, the mixtures were thoroughly mixed by an ultrasonic treatment and a vortex mixer. […]
as §6

[3] = mouse, t 1/2 Distribution phase
[4] = uPA(+/+)/SCID, mouse, in vivo, iv
[5] = uPA(+/+)/SCID, mouse, in vivo, iv, t 1/2 Distribution phase
[6] = uPA(−/−)/SCID, mouse, in vivo, iv, AUC
[7] = uPA(−/−)/SCID, mouse, in vivo, iv, t 1/2 Distribution phase
[8] = uPA(−/−)/SCID, mouse, in vivo, iv, t 1/2 Elimination phase
[9] = uPA(−/−)/SCID, mouse, in vivo, po, AUC
[10] = uPA(−/−)/SCID, mouse, in vivo, po

COc1ccc2c(c1)[C@]13CCCC[C@@H]1[C@H](C2)N(C)CC3 [Dextromethorphan, dextromethorphan]
AUC (CYP2D6; in vivo): 358 ng·h/mL
Cmax (CYP2D6; in vivo, 30 mg/kg/day): 156 ng/mL
half-life (CYP2D6; in vivo, t 1/2 Distribution phase, high-replacement chimeric mouse, donor BD51, inhibitor paroxetine, time window per footnote): 1.44 h
half-life (CYP2D6; in vivo, t 1/2 Elimination phase, high-replacement chimeric mouse, donor BD51, inhibitor paroxetine, time window per footnote): 5.29 h
AUC in high-replacement chimeric mice compared with low-replacement chimeric mice ([1]; donor hepatocytes IVT079): significantly lower
AUC ([1]; uPA(+/+)/SCID, mouse, in vivo, iv, AUC, intravenous administration, high-replacement chimeric mouse, donor IVT079): 4030 ng·h/mL
AUC ([1]; uPA(+/+)/SCID, mouse, in vivo, iv, AUC, intravenous administration, low-replacement chimeric mouse, donor IVT079): 4600 ng·h/mL
half-life ([1]; uPA(+/+)/SCID, mouse, in vivo, iv, t 1/2 Distribution phase, intravenous administration, high-replacement chimeric mouse, donor IVT079, time window per footnote): 3.15 h
half-life ([1]; uPA(+/+)/SCID, mouse, in vivo, iv, t 1/2 Distribution phase, intravenous administration, low-replacement chimeric mouse, donor IVT079, time window per footnote): 0.414 h
half-life ([1]; uPA(+/+)/SCID, mouse, in vivo, iv, t 1/2 Elimination phase, intravenous administration, high-replacement chimeric mouse, donor IVT079, 2-8 hr): 1.23 h
half-life ([1]; uPA(+/+)/SCID, mouse, in vivo, iv, t 1/2 Elimination phase, intravenous administration, low-replacement chimeric mouse, donor IVT079, 2-8 hr): 1.5 h
AUC ([1]; uPA(+/+)/SCID, mouse, in vivo, po, AUC, oral administration, high-replacement chimeric mouse, donor IVT079): 1020 ng·h/mL
AUC ([1]; uPA(+/+)/SCID, mouse, in vivo, po, AUC, oral administration, low-replacement chimeric mouse, donor IVT079): 3650 ng·h/mL
bioavailability ([1]; uPA(+/+)/SCID, mouse, in vivo, po, high-replacement chimeric mouse, donor IVT079): 2.53%
bioavailability ([1]; uPA(+/+)/SCID, mouse, in vivo, po, low-replacement chimeric mouse, donor IVT079): 7.93%
Cmax ([1]; uPA(+/+)/SCID, mouse, in vivo, po, oral administration, high-replacement chimeric mouse, donor IVT079, serum): 276 ng/mL
Cmax ([1]; uPA(+/+)/SCID, mouse, in vivo, po, oral administration, low-replacement chimeric mouse, donor IVT079, serum): 836 ng/mL
half-life ([1]; uPA(+/+)/SCID, mouse, in vivo, po, t 1/2 Distribution phase, oral administration, high-replacement chimeric mouse, donor IVT079, time window per footnote): 1.15 h
half-life ([1]; uPA(+/+)/SCID, mouse, in vivo, po, t 1/2 Distribution phase, oral administration, low-replacement chimeric mouse, donor IVT079, time window per footnote): 2.88 h
half-life ([1]; uPA(+/+)/SCID, mouse, in vivo, po, t 1/2 Elimination phase, oral administration, high-replacement chimeric mouse, donor IVT079, time window per footnote): 10.4 h
half-life ([1]; uPA(+/+)/SCID, mouse, in vivo, po, t 1/2 Elimination phase, oral administration, low-replacement chimeric mouse, donor IVT079, time window per footnote): 9.98 h
AUC ([1]; uPA(−/−)/SCID, mouse, in vivo, iv, AUC, intravenous administration, uPA(−/−)/SCID mouse): 2610 ng·h/mL
half-life ([1]; uPA(−/−)/SCID, mouse, in vivo, iv, t 1/2 Distribution phase, intravenous administration, uPA(−/−)/SCID mouse, time window per footnote): 0.47 h
AUC ([1]; uPA(−/−)/SCID, mouse, in vivo, po, AUC, oral administration, uPA(−/−)/SCID mouse): 580 ng·h/mL
bioavailability ([1]; uPA(−/−)/SCID, mouse, in vivo, po, uPA(−/−)/SCID mouse): 2.22%
Cmax ([1]; uPA(−/−)/SCID, mouse, in vivo, po, oral administration, uPA(−/−)/SCID mouse, serum, dose per drug in table): 130 ng/mL
half-life ([1]; uPA(−/−)/SCID, mouse, in vivo, po, t 1/2 Distribution phase, oral administration, uPA(−/−)/SCID mouse, time window per footnote): 2.45 h

Cn1c(=O)c2c(ncn2C)n(C)c1=O [Caffeine, caffeine]
AUC (CYP2D6; mouse): 97100 ng·h/mL
half-life (CYP2D6; [3]): 3.4 h
t 1/2 Distribution phase [1, 4]: 0.437^#3 hr
half-life [1, 5]: 0.809 h
t 1/2 Distribution phase ([1]; uPA(+/+)/SCID, mouse, in vivo, po): 2.16^#3 hr
half-life ([1]; uPA(+/+)/SCID, mouse, in vivo, po, t 1/2 Distribution phase): 3.45 h
AUC [1, 6]: 4070 ng·h/mL
half-life [1, 7]: 0.609 h
half-life [1, 8]: 0.505 h
AUC [1, 9]: 33200 ng·h/mL
bioavailability [1, 10]: 81.6%
Cmax [1, 10]: 8800 ng/mL
half-life ([1]; uPA(−/−)/SCID, mouse, in vivo, po, t 1/2 Elimination phase): 0.82 h
AUC in high-replacement chimeric mice compared with low-replacement chimeric mice [2]: significantly lower
AUC ([2]; uPA(+/+)/SCID): 65700 ng·h/mL

CCCCNC(=O)NS(=O)(=O)c1ccc(C)cc1 [Tolbutamide, tolbutamide]
AUC (CYP2D6; mouse): 115000 ng·h/mL
half-life (CYP2D6; [3]): 3.31 h
AUC in high-replacement chimeric mice compared with low-replacement chimeric mice ([1]; mouse, in vivo): significantly lower
AUC [1, 4]: 20600 ng·h/mL
t 1/2 Distribution phase [1, 4]: 0.865^#3 hr
AUC ([1]; uPA(+/+)/SCID, mouse, in vivo, iv, AUC): 16800 ng·h/mL
half-life [1, 5]: 0.982 h
half-life ([1]; uPA(+/+)/SCID, mouse, in vivo, po, t 1/2 Elimination phase): 4.3 h
AUC [1, 6]: 11500 ng·h/mL
half-life [1, 7]: 2.84 h
half-life [1, 8]: 2.56 h
AUC [1, 9]: 95300 ng·h/mL
bioavailability [1, 10]: 82.9%
Cmax [1, 10]: 16900 ng/mL
AUC in high-replacement chimeric mice compared with low-replacement chimeric mice [2]: significantly lower

Reference: patent US20090047655A1, “Method Of Screening Candidate Drug” (priority 2004, published 2009)
